Measurements published in paper PMC5540273, “Progress towards a public chemogenomic set for protein kinases and a call for contributions” (PLoS ONE, 2017).

Columns and labels:
Assay in all cases: KINOMEscan competition binding
LIMK2 = LIMK2 (Homo sapiens, UniProt P53671); details: read-out: %Inh LIMK2
HIPK4 = molecular target: T1, HIPK4 (Homo sapiens, UniProt Q8NE63); details: read-out: %Inh HIPK4
T1 sequence (Q8NE63 1-616): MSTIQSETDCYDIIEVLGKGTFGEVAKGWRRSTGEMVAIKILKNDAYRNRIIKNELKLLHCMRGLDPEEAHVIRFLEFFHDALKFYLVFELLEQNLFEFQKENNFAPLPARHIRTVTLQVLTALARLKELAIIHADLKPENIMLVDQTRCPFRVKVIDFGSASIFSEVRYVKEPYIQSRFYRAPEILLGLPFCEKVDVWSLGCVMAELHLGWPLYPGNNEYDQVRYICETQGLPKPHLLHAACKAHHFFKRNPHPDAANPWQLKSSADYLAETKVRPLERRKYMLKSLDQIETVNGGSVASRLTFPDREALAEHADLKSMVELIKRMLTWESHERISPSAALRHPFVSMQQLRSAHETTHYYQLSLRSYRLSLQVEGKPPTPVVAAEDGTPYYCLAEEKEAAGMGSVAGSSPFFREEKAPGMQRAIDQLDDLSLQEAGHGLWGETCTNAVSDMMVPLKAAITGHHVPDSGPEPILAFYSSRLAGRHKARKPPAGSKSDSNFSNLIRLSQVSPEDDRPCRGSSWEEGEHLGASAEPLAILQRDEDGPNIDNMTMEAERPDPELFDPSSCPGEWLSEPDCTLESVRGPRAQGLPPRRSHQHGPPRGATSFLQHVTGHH

AKT3 = AKT3 (Homo sapiens, UniProt Q9Y243); details: read-out: %Inh AKT3
Chain of AKT3 (Q9Y243 whole entry): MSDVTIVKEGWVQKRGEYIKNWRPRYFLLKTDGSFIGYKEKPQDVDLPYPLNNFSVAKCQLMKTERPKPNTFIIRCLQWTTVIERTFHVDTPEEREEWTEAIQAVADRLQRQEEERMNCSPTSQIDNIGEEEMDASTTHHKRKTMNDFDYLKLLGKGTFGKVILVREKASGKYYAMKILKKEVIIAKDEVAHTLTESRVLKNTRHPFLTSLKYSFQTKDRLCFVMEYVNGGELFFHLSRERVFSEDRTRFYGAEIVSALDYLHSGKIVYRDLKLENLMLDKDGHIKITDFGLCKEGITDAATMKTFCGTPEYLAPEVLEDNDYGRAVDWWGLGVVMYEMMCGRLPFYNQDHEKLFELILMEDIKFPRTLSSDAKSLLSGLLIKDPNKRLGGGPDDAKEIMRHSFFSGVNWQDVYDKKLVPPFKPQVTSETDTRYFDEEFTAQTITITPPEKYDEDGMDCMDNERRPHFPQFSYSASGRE

EPHA4 = EPHA4 (Homo sapiens, UniProt P54764); details: read-out: %Inh EPHA4
Chain of EPHA4 (P54764 20-986): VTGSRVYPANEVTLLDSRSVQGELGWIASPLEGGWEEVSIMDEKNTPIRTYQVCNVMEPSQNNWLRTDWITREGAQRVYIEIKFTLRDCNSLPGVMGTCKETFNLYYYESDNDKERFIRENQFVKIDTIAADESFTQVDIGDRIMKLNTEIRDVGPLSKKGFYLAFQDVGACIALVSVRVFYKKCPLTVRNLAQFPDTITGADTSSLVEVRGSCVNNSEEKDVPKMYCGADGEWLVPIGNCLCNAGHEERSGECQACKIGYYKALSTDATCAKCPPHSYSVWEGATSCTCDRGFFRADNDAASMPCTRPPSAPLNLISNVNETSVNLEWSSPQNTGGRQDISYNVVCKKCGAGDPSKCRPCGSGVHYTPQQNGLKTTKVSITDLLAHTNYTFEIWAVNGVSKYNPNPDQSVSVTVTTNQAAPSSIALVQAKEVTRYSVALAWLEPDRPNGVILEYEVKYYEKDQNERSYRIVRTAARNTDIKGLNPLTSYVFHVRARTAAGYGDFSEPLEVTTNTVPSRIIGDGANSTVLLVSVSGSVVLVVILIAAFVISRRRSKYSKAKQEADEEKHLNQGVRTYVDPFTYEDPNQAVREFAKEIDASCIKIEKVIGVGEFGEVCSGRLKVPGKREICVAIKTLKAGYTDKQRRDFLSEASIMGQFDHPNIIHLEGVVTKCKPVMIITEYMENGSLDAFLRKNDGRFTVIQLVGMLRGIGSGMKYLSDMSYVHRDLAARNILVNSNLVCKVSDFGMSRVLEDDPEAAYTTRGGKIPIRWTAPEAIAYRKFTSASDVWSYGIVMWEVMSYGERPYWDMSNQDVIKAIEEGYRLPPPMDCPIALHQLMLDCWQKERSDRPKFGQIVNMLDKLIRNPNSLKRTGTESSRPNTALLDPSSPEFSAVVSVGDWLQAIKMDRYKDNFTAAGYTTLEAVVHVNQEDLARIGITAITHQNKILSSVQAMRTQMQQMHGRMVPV

IRAK4 = molecular target: T2, IRAK4 (Homo sapiens, UniProt Q9NWZ3); details: read-out: %Inh IRAK4
T2 sequence (Q9NWZ3 1-460): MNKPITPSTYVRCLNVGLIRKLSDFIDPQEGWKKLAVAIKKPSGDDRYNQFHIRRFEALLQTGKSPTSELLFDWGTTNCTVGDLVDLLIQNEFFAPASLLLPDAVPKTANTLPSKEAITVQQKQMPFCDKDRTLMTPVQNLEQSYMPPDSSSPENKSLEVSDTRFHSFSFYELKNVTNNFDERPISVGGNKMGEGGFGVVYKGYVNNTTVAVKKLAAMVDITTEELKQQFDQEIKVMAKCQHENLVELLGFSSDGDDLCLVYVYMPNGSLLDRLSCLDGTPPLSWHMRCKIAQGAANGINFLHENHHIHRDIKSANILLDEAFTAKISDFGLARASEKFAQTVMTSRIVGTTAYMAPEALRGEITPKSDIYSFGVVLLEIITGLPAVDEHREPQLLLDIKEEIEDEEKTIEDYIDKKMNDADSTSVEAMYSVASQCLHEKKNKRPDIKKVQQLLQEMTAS

CDK4-cyclinD1 = CDK4-cyclinD1 (Homo sapiens, UniProt P11802); details: read-out: %Inh CDK4-cyclinD1
Chain of CDK4-cyclinD1 (P11802 whole entry): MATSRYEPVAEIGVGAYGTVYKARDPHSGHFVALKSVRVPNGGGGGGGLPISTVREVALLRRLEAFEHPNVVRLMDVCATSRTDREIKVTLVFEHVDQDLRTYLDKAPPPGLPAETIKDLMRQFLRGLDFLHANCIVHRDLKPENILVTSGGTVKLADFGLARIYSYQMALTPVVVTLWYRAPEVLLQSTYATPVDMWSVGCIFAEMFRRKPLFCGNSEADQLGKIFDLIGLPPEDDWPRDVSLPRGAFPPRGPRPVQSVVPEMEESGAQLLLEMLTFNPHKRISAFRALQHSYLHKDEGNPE
Chain of CDK4-cyclinD1 (P24385 whole entry partner): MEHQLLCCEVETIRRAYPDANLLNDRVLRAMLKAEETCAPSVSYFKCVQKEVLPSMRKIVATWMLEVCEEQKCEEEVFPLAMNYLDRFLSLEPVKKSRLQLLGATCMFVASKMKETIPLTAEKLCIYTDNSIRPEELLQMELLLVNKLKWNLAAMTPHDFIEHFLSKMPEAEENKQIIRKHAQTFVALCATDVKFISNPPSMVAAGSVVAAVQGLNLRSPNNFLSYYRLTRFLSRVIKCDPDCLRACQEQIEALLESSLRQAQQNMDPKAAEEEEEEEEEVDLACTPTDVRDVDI

CLK4 = CLK4 (Homo sapiens, UniProt Q9HAZ1); details: read-out: %Inh CLK4
Chain of CLK4 (Q9HAZ1 whole entry): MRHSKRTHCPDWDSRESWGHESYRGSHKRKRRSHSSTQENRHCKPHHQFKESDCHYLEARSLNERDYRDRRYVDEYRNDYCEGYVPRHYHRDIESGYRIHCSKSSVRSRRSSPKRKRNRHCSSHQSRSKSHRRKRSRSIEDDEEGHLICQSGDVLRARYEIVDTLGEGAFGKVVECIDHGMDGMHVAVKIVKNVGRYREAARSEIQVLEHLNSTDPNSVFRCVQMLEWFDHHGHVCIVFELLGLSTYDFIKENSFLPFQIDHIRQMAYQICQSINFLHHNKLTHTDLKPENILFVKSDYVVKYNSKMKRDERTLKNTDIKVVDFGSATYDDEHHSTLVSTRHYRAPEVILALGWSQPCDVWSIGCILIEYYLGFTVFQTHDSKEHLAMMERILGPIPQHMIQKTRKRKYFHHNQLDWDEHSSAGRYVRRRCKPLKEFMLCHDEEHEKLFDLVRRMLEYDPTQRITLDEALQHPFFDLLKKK

ACVRL1 = ACVRL1 (Homo sapiens, UniProt P37023); details: read-out: %Inh ACVRL1
Chain of ACVRL1 (P37023 22-503): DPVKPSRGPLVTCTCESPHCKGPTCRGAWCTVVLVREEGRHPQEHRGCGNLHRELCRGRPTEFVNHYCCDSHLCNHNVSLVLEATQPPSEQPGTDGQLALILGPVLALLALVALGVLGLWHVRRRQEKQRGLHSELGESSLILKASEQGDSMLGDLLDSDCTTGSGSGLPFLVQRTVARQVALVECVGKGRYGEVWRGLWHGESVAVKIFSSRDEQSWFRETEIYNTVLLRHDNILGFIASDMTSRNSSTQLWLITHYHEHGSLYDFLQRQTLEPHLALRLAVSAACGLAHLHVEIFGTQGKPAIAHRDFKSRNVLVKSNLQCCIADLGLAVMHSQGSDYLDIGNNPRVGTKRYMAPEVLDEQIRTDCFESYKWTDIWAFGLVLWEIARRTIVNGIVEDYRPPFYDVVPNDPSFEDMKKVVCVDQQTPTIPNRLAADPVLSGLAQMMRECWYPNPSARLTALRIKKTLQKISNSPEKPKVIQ

BLK = BLK (Homo sapiens, UniProt P51451); details: read-out: %Inh BLK
Chain of BLK (P51451 whole entry): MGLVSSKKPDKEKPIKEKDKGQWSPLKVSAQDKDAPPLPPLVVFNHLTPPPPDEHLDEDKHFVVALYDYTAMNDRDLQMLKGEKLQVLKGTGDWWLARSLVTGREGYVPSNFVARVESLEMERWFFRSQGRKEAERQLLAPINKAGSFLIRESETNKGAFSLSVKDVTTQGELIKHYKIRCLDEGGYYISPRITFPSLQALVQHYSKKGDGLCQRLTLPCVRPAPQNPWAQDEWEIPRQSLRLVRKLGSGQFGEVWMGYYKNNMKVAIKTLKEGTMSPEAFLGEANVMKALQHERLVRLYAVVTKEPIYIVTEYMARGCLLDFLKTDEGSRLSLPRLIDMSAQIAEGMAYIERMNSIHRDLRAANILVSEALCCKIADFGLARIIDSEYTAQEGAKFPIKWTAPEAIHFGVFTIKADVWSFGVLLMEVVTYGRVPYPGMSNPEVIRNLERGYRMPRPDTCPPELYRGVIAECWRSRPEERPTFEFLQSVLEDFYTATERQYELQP

[1] = molecular target: JAK1(JH1domain-catalytic) (Homo sapiens, UniProt P23458); details: read-out: %Inh JAK1(JH1domain-catalytic)
Chain of JAK1(JH1domain-catalytic) (P23458 854-1154 limits assumed): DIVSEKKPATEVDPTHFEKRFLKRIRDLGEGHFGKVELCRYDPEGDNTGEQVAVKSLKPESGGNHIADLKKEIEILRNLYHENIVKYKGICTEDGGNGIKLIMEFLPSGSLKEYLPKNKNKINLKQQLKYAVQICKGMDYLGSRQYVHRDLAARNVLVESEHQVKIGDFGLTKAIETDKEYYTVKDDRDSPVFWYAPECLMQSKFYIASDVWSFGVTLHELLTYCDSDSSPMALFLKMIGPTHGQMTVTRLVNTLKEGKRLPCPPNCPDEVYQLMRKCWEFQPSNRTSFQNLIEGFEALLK

CSNK1E = CSNK1E (Homo sapiens, UniProt P49674); details: read-out: %Inh CSNK1E
Chain of CSNK1E (P49674 whole entry): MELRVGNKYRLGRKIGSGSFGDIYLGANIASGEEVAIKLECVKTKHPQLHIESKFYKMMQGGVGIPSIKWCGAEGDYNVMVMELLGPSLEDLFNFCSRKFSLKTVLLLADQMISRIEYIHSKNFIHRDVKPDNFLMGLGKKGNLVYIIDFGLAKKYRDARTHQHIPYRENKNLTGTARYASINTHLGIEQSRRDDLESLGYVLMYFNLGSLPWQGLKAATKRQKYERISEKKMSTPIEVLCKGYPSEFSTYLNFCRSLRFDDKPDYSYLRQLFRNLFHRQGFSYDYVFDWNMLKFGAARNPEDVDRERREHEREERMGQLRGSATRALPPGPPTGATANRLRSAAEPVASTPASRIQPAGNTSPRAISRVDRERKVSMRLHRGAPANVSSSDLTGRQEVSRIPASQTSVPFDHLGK

BTK = BTK (Homo sapiens, UniProt Q06187); details: read-out: %Inh BTK
GRK7 = molecular target: T3, GRK7 (Homo sapiens, UniProt Q8WTQ7); details: read-out: %Inh GRK7
T3 sequence (Q8WTQ7 1-553): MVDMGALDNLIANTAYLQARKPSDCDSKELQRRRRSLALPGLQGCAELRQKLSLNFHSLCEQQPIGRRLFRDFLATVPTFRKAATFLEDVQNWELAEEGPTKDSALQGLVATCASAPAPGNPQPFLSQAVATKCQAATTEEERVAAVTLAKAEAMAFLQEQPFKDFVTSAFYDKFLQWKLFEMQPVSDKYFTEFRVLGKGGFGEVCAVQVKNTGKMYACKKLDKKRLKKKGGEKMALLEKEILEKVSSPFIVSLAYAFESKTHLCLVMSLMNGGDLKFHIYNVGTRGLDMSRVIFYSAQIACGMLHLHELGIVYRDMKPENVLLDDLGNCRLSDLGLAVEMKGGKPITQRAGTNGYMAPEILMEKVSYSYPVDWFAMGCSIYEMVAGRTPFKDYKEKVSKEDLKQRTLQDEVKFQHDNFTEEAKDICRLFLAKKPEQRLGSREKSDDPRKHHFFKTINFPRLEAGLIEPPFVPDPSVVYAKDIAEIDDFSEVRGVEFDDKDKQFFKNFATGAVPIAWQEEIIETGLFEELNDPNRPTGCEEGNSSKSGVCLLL

Chain of LIMK2 (P53671 whole entry): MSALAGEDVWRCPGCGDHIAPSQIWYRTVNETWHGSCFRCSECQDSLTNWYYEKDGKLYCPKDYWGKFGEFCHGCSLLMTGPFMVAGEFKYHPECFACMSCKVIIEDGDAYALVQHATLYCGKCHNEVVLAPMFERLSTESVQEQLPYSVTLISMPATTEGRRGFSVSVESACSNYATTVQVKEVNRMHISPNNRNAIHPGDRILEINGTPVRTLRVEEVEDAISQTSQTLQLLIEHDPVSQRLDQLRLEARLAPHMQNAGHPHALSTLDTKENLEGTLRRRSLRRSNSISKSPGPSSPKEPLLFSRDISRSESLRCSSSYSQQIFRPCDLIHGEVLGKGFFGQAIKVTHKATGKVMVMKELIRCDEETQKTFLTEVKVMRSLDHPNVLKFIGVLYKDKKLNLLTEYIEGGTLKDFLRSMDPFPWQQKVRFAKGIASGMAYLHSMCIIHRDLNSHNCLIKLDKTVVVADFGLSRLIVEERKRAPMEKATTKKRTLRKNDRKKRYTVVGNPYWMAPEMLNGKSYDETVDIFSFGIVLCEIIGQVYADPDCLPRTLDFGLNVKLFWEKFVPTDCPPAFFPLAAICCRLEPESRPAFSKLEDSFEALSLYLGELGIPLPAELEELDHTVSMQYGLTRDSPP

SMILES	inhibition at 1 µM (LIMK2) [%]	inhibition at 1 µM (HIPK4) [%]	inhibition at 1 µM (AKT3) [%]	inhibition at 1 µM (EPHA4) [%]	inhibition at 1 µM (IRAK4) [%]	inhibition at 1 µM (CDK4-cyclinD1) [%]	inhibition at 1 µM (CLK4) [%]	inhibition at 1 µM (ACVRL1) [%]	inhibition at 1 µM (BLK) [%]	inhibition at 1 µM [1] [%]	inhibition at 1 µM (CSNK1E) [%]	inhibition at 1 µM (BTK) [%]	inhibition at 1 µM (GRK7) [%]
COc1cccc(OC)c1C(=O)Nc1cccc(-c2nn3ccccc3c2-c2ccnc(Nc3cccc(F)c3)n2)c1 [UNC10225310A]	15	84	0	0	0	0	0	7	41	0	64	0	17
Cc1ccc(NC(=O)Nc2cccc(C(F)(F)F)c2)cc1 [UNC10225187A]	10	0	0	6	0	0	0	0	0	0	0	0	10
O=c1cc(N2CCOCC2)nc2n(Cc3cccc(Cl)c3Cl)c(C3CC3)nn12 [UNC10225469A]	8	0	0	11	0	0	0	9	0	9	11	0	0
CS(=O)(=O)Cc1ccc(Nc2nccc(-c3c(-c4cccc(NC(=O)C5CCCCC5)c4)nn4ncccc34)n2)cc1 [UNC10225159A]	14	0	0	14	25	15	0	0	0	0	20	0	5
Cn1cc(-c2cnc(N)c3c(-c4ccc5c(c4)CCN5C(=O)Cc4ccccc4)csc23)cn1 [UNC10225012A]	55	0	8	11	0	0	0	0	93	0	1	0	6
